Measurements as given in ChEMBL document CHEMBL1143417, “Roles of P-glycoprotein, Bcrp, and Mrp2 in biliary excretion of spiramycin in mice” (Antimicrob Agents Chemother, 2007).

Legend:
[1] = Drug excretion in Bcrp gene knockout C57BL/6 mouse assessed as drug recovery in bile at 1 uM administered through single-pass liver perfusion for 15 mins relative to total liver drug content at the end of infusion; assay type: ADME, tissue-based; details: in vivo, 0.25 h
[2] = tested on: Mus musculus; experiment: Hepatic uptake clearance in C57BL/6 mouse at 1 uM administered through single-pass liver perfusion for 15 mins coinfused with Pgp and Bcrp inhibitor GW918; assay type: ADME, organism-based; details: in vivo, 0.25 h
[3] = Drug excretion in Mrp2 gene knockout C57BL/6 mouse assessed as drug recovery in bile at 1 uM administered through single-pass liver perfusion for 15 mins relative to total liver drug content at the end of infusion; assay type: ADME, tissue-based; details: in vivo, 0.25 h
[4] = tested on: Mus musculus; experiment: Hepatic uptake clearance in C57BL/6 mouse at 1 uM administered through single-pass liver perfusion for 15 mins; assay type: ADME, organism-based; details: in vivo, 0.25 h
[5] = tested on: Mus musculus; experiment: Drug excretion in Mrp2 gene knockout C57BL/6 mouse assessed as drug recovery in outflow perfusate and bile at 1 uM administered through single-pass liver perfusion for 15 mins; assay type: ADME, organism-based; details: in vivo, 0.25 h
[6] = Drug level in Bcrp gene knockout C57BL/6 mouse bile at 1 uM administered through single-pass liver perfusion for 15 mins coinfused with Pgp and Bcrp inhibitor GW918; assay type: ADME, tissue-based; details: in vivo, 0.25 h
[7] = tested on: Mus musculus; experiment: Drug excretion in Mrp2 gene knockout C57BL/6 mouse assessed as drug recovery in outflow perfusate at 1 uM administered through single-pass liver perfusion for 15 mins relative to total liver drug content at the end of infusion; assay type: ADME, organism-based; details: in vivo, 0.25 h
[8] = tested on: Mus musculus; experiment: Hepatic uptake clearance in Mrp2 gene knockout C57BL/6 mouse at 1 uM administered through single-pass liver perfusion for 15 mins; assay type: ADME, organism-based; details: in vivo, 0.25 h
[9] = tested on: Mus musculus; experiment: Drug excretion in C57BL/6 mouse assessed as drug recovery in outflow perfusate at 1 uM administered through single-pass liver perfusion for 15 mins relative to total liver drug content at the end of infusion; assay type: ADME, organism-based; details: in vivo, 0.25 h
[10] = Drug level in Mrp2 gene knockout C57BL/6 mouse bile at 1 uM administered through single-pass liver perfusion for 15 mins coinfused with Pgp and Bcrp inhibitor GW918; assay type: ADME, tissue-based; details: in vivo, 0.25 h
[11] = Drug level in Bcrp gene knockout C57BL/6 mouse bile at 1 uM administered through single-pass liver perfusion for 15 mins; assay type: ADME, tissue-based; details: in vivo, 0.25 h
[12] = Drug excretion in Mrp2 gene knockout C57BL/6 mouse assessed as drug recovery in bile at 1 uM administered through single-pass liver perfusion for 15 mins coinfused with Pgp and Bcrp inhibitor GW918 relative to total liver drug content at the end of infusion; assay type: ADME, tissue-based; design: scale not given: the % may be the effect or the level left; details: in vivo, 0.25 h
[13] = Drug excretion in C57BL/6 mouse assessed as drug recovery in bile at 1 uM administered through single-pass liver perfusion for 15 mins relative to total liver drug content at the end of infusion; assay type: ADME, tissue-based; details: in vivo, 0.25 h
[14] = tested on: Mus musculus; experiment: Drug excretion in Bcrp gene knockout C57BL/6 mouse assessed as drug recovery in outflow perfusate at 1 uM administered through single-pass liver perfusion for 15 mins coinfused with Pgp and Bcrp inhibitor GW918 relative to total liver drug content at the end of infusion; assay type: ADME, organism-based; design: scale not given: the % may be the effect or the level left; details: in vivo, 0.25 h
[15] = Drug excretion in Bcrp gene knockout C57BL/6 mouse assessed as drug recovery in bile at 1 uM administered through single-pass liver perfusion for 15 mins coinfused with Pgp and Bcrp inhibitor GW918 relative to total liver drug content at the end of infusion; assay type: ADME, tissue-based; design: scale not given: the % may be the effect or the level left; details: in vivo, 0.25 h
[16] = Drug excretion in C57BL/6 mouse assessed as drug recovery in bile at 1 uM administered through single-pass liver perfusion for 15 mins coinfused with Pgp and Bcrp inhibitor GW918 relative to total liver drug content at the end of infusion; assay type: ADME, tissue-based; design: scale not given: the % may be the effect or the level left; details: in vivo, 0.25 h
[17] = tested on: Mus musculus; experiment: Hepatic uptake clearance in Mrp2 gene knockout C57BL/6 mouse at 1 uM administered through single-pass liver perfusion for 15 mins coinfused with Pgp and Bcrp inhibitor GW918; assay type: ADME, organism-based; details: in vivo, 0.25 h
[18] = Drug level in C57BL/6 mouse bile at 1 uM administered through single-pass liver perfusion for 15 mins coinfused with Pgp and Bcrp inhibitor GW918; assay type: ADME, tissue-based; details: in vivo, 0.25 h
[19] = tested on: Mus musculus; experiment: Drug excretion in C57BL/6 mouse assessed as drug recovery in outflow perfusate at 1 uM administered through single-pass liver perfusion for 15 mins coinfused with Pgp and Bcrp inhibitor GW918 relative to total liver drug content at the end of infusion; assay type: ADME, organism-based; design: scale not given: the % may be the effect or the level left; details: in vivo, 0.25 h
[20] = tested on: Mus musculus; experiment: Drug excretion in C57BL/6 mouse assessed as drug recovery in outflow perfusate and bile at 1 uM administered through single-pass liver perfusion for 15 mins; assay type: ADME, organism-based; details: in vivo, other, 0.25 h
[21] = Drug level in Mrp2 gene knockout C57BL/6 mouse bile at 1 uM administered through single-pass liver perfusion for 15 mins; assay type: ADME, tissue-based; details: in vivo, 0.25 h
[22] = tested on: Mus musculus; experiment: Hepatic uptake clearance in Bcrp gene knockout C57BL/6 mouse at 1 uM administered through single-pass liver perfusion for 15 mins coinfused with Pgp and Bcrp inhibitor GW918; assay type: ADME, organism-based; details: in vivo, 0.25 h
[23] = tested on: Mus musculus; experiment: Hepatic uptake clearance in Bcrp gene knockout C57BL/6 mouse at 1 uM administered through single-pass liver perfusion for 15 mins; assay type: ADME, organism-based; details: in vivo, 0.25 h
[24] = tested on: Mus musculus; experiment: Drug excretion in Bcrp gene knockout C57BL/6 mouse assessed as drug recovery in outflow perfusate and bile at 1 uM administered through single-pass liver perfusion for 15 mins; assay type: ADME, organism-based; details: in vivo, 0.25 h
[25] = Drug level in C57BL/6 mouse bile at 1 uM administered through single-pass liver perfusion for 15 mins; assay type: ADME, tissue-based; details: in vivo, 0.25 h
[26] = tested on: Mus musculus; experiment: Drug excretion in Mrp2 gene knockout C57BL/6 mouse assessed as drug recovery in outflow perfusate at 1 uM administered through single-pass liver perfusion for 15 mins coinfused with Pgp and Bcrp inhibitor GW918 relative to total liver drug content at the end of infusion; assay type: ADME, organism-based; design: scale not given: the % may be the effect or the level left; details: in vivo, 0.25 h
[27] = tested on: Mus musculus; experiment: Drug excretion in Bcrp gene knockout C57BL/6 mouse assessed as drug recovery in outflow perfusate at 1 uM administered through single-pass liver perfusion for 15 mins relative to total liver drug content at the end of infusion; assay type: ADME, organism-based; details: in vivo, 0.25 h

Q: With SPIRAMYCIN as the sequence, how does the Activity [1] read?
A: Its Activity is 14.1%.

Q: What about the CLup [2] of the same sequence?
A: The CLup was 4.64 mL/min.

Q: What about the Activity [3] of the same sequence?
A: The Activity was 1.21%.

Q: What about the CLup [4] of the same sequence?
A: The CLup was 4.63 mL/min.

Q: And the Activity [5]?
A: The Activity was 82.4 %ID.

Q: What about the Drug uptake [6] of the same sequence?
A: Its Drug uptake is 14 µg/mL.

Q: What about the Activity [7] of the same sequence?
A: Its Activity is 29.5%.

Q: And the CLup [8]?
A: The CLup was 5.15 mL/min.

Q: And the Activity [9]?
A: Its Activity is 32.5%.

Q: What about the Drug uptake [10] of the same sequence?
A: Its Drug uptake is 1.77 µg/mL.

Q: And the Drug uptake [11]?
A: The Drug uptake was 19.1 µg/mL.

Q: What about the Activity [12] of the same sequence?
A: Its Activity is 0.58%.

Q: What about the Activity [13] of the same sequence?
A: The Activity was 9.15%.

Q: What about the Activity [14] of the same sequence?
A: Its Activity is 25.2%.

Q: What about the Activity [15] of the same sequence?
A: The Activity was 8.28%.

Q: And the Activity [16]?
A: The Activity was 4.36%.

Q: What about the CLup [17] of the same sequence?
A: Its CLup is 4.7 mL/min.

Q: And the Drug uptake [18]?
A: Its Drug uptake is 7.82 µg/mL.

Q: What about the Activity [19] of the same sequence?
A: Its Activity is 34.1%.

Q: What about the Activity [20] of the same sequence?
A: The Activity was 90.5 %ID.

Q: What about the Drug uptake [21] of the same sequence?
A: Its Drug uptake is 3.45 µg/mL.

Q: What about the CLup [22] of the same sequence?
A: The CLup was 5.03 mL/min.

Q: What about the CLup [23] of the same sequence?
A: The CLup was 4.55 mL/min.

Q: What about the Activity [24] of the same sequence?
A: Its Activity is 86.5 %ID.

Q: And the Drug uptake [25]?
A: The Drug uptake was 8.65 µg/mL.

Q: And the Activity [26]?
A: Its Activity is 24%.

Q: What about the Activity [27] of the same sequence?
A: Its Activity is 28.1%.
